Results published in article PMC11001641, “Iron–sulfur cluster assembly scaffold protein IscU is required for activation of ferric uptake regulator (Fur) in Escherichiacoli” (The Journal of Biological Chemistry, 2024).

Columns and labels:
E. coli FhuF = molecular target: T1, E. coli FhuF (Escherichia coli, UniProt P39405); assay: UV-Vis absorption of purified protein; assay type: binding; conditions: pH 8.0; 500 mM NaCl; protein from wild-type E. coli grown in M9 with 2 uM iron; bound during expression
T1 construct: his-tagged, expressed from pBAD in E. coli MC4100
T1 sequence (P39405 whole entry): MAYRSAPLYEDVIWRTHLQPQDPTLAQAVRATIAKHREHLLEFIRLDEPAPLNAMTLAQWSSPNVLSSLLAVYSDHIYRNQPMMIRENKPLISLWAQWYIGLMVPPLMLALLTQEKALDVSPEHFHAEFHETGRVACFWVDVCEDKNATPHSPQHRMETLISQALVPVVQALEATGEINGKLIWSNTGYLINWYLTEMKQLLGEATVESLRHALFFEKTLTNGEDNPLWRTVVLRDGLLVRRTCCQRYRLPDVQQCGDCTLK

E. coli ferredoxin (Fdx) = molecular target: T2, E. coli ferredoxin (Fdx) (Escherichia coli, UniProt P0A9R4); assay: UV-Vis absorption of purified protein; assay type: binding; conditions: pH 8.0; 500 mM NaCl; protein from wild-type E. coli grown in M9 with 2 uM iron; bound during expression
T2 construct: his-tagged, expressed from pBAD in E. coli MC4100; isc operon ferredoxin
T2 sequence (P0A9R4 2-111): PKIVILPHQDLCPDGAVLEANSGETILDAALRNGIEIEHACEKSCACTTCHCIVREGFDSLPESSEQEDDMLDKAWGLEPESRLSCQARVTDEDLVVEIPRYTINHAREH

[S]1[Fe][S][Fe]1 [[2Fe-2S] cluster]
UV-Vis absorption of purified protein (E. coli FhuF): [2Fe-2S] cluster assembly in the E. coli siderophore-reductase FhuF
UV-Vis absorption of purified protein (E. coli ferredoxin (Fdx)): the E. coli ferredoxin, a [2Fe-2S] cluster-containing protein
